Source: ChEMBL document CHEMBL1201862, “PubChem BioAssay data set” (2004)
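All cell lines were grown in 96-well plates and treated with compound for 48 hours. Here, GI50 denotes the concentration required for 50% inhibition of growth.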 Active and inactive are the calls of the source. Cut-off read from the data, not from the text of the source: active = GI50 up to about 1.1 µM and inactive = higher.

Tests used:
Assay in all cases: NCI-60 cell line screen, 48 h
[1] = test system: SK-MEL-28
[2] = test system: SW-620
[3] = test system: UACC-62
[4] = test system: NCI-H226
[5] = test system: SK-MEL-5
[6] = test system: OVCAR-5
[7] = test system: Malme-3M
[8] = test system: NCI-H23
[9] = test system: HL-60
[10] = test system: A549
[11] = test system: NCI/ADR-RES
[12] = test system: SF-295
[13] = test system: SNB-75
[14] = test system: NCI-H522
[15] = test system: KM12
[16] = test system: DU-145
[17] = test system: PC-3
[18] = test system: HT-29
[19] = test system: UO-31
[20] = test system: MDA-MB-435

Measured: GI50

CCOC(=O)C(NCc1cccc(C(F)(F)F)c1)(NC(=O)CC)C(F)(F)F (configuration not stated)
inactive: [1] > 100 µM | [2] > 100 µM | [3] 96.6 µM | [4] > 100 µM | [5] > 100 µM | [6] > 100 µM | [7] > 100 µM | [8] > 100 µM | [9] 58.5 µM | [10] 44.2 µM | [11] > 100 µM | [12] > 100 µM | [13] 63.5 µM | [14] > 100 µM | [15] > 100 µM | [16] > 100 µM | [17] 95.5 µM | [18] > 100 µM | [19] 51.8 µM | [20] > 100 µM

Cc1ccc(C2=Nc3cc(C)c(Cl)cc3S(=O)(=O)NN2)cc1
inactive: [1] > 100 µM | [2] > 100 µM | [3] 56.9 µM | [4] > 100 µM | [5] > 100 µM | [7] > 100 µM | [8] > 100 µM | [9] 34.4 µM | [10] 57.8 µM | [11] > 100 µM | [12] > 100 µM | [13] > 100 µM | [14] > 100 µM | [15] > 100 µM | [16] > 100 µM | [17] > 100 µM | [18] > 100 µM | [19] > 100 µM | [20] > 100 µM

CC[N+]1(C)CCC(O)(/C=C/c2ccc(Cl)c(Cl)c2)C(C(=O)/C=C/c2ccc(Cl)c(Cl)c2)C1 (configuration not stated)
inactive: [1] 2.15 µM | [2] 1.91 µM | [3] 1.74 µM | [4] 4.08 µM | [5] 2.68 µM | [6] 2.62 µM | [7] 1.62 µM | [8] 2.57 µM | [9] 1.9 µM | [10] 4.41 µM | [11] 2.51 µM | [12] 4.14 µM | [13] 3.78 µM | [14] 1.77 µM | [15] 1.88 µM | [16] 2.71 µM | [17] 2.18 µM | [18] 2.07 µM | [19] 1.83 µM | [20] 2.12 µM

O=C(OCC1OC(n2nc(Cn3nnc(-c4cccnc4)n3)n(-c3cccc4ccccc34)c2=S)C(OC(=O)c2ccccc2)C1OC(=O)c1ccccc1)c1ccccc1 (configuration not stated)
inactive: [1] > 100 µM | [2] > 100 µM | [3] > 100 µM | [4] > 100 µM | [5] > 100 µM | [6] 65.9 µM | [7] > 100 µM | [8] > 100 µM | [9] > 100 µM | [10] > 100 µM | [11] > 100 µM | [12] > 100 µM | [13] 2.55 µM | [14] > 100 µM | [15] > 100 µM | [16] > 100 µM | [17] > 100 µM | [18] > 100 µM | [19] > 100 µM | [20] > 100 µM

COC(=O)c1c(C)c2c(c(C)c1C(=O)OC)-c1c(C)ccc3ccc(C)c-2c13
inactive: [1] 68.2 µM | [2] 32.9 µM | [3] 47.5 µM | [4] > 100 µM | [5] 13.1 µM | [6] > 68.7 µM | [7] > 55.1 µM | [9] 5.08 µM | [10] 37.9 µM | [11] 26.7 µM | [12] 11.4 µM | [13] 27.8 µM | [14] 31.2 µM | [15] 9.38 µM | [16] > 100 µM | [17] 28.7 µM | [18] 7.82 µM | [19] 47.8 µM | [20] > 83 µM

CC(C)(C)OC(=O)NCCCCC1NC(=O)[C@@H]2Cc3c([nH]c4ccccc34)C(C3CCCCC3)N2C1=O (some centres not stated)
inactive: [1] 85.1 µM | [2] 61.8 µM | [3] 32.4 µM | [4] 75 µM | [5] 33.6 µM | [6] > 100 µM | [7] > 100 µM | [8] 49.8 µM | [9] 31.1 µM | [10] 30.5 µM | [11] 57.9 µM | [12] 19.8 µM | [14] 45.3 µM | [15] 23.6 µM | [16] 54.8 µM | [17] 18.3 µM | [18] 28.1 µM | [19] 35.1 µM | [20] 23.6 µM

COc1cc2oc(-c3ccc(O)cc3)c(OC3OC(C)C(O)C(O)C3O)c(=O)c2c(O)c1OC (configuration not stated)
inactive: [1] > 100 µM | [2] 92.7 µM | [3] 75.5 µM | [4] > 100 µM | [5] 45.1 µM | [6] > 100 µM | [7] 96.2 µM | [8] 36.5 µM | [9] 32.9 µM | [10] 79.6 µM | [11] 75.5 µM | [12] > 100 µM | [13] > 100 µM | [14] 37 µM | [15] > 100 µM | [16] 99.8 µM | [17] > 100 µM | [18] > 100 µM | [20] > 100 µM

COc1ccc(C(=O)Sc2c(-c3ccccc3)c(=O)n(-c3ccccc3)c(=S)n2-c2ccccc2)cc1
inactive: [1] 81.5 µM | [2] > 100 µM | [3] > 100 µM | [4] 5.73 µM | [6] > 100 µM | [7] 48.5 µM | [8] > 100 µM | [9] 60.5 µM | [10] 64.1 µM | [11] > 100 µM | [12] > 100 µM | [13] > 100 µM | [14] > 100 µM | [15] > 100 µM | [16] > 100 µM | [17] 5.16 µM | [18] > 100 µM | [20] > 100 µM

O=S1(=O)OCCOS(=O)(=O)C1(F)Cc1ccccc1
inactive: [1] > 100 µM | [2] > 100 µM | [3] > 100 µM | [4] > 100 µM | [5] > 100 µM | [6] > 100 µM | [7] > 100 µM | [8] > 100 µM | [9] > 100 µM | [10] > 100 µM | [11] > 100 µM | [12] > 100 µM | [13] > 100 µM | [14] > 100 µM | [16] > 100 µM | [17] > 100 µM | [18] > 100 µM | [19] > 100 µM | [20] > 100 µM

Cc1c(C2CCSc3ccccc3N2)sc2ccccc12 (configuration not stated)
inactive: [1] > 100 µM | [2] > 100 µM | [3] > 100 µM | [4] > 100 µM | [5] > 100 µM | [7] 64.3 µM | [8] > 100 µM | [9] 55.5 µM | [10] 99.8 µM | [11] 46 µM | [12] > 100 µM | [13] 98.2 µM | [14] 47 µM | [15] 65.6 µM | [16] > 100 µM | [17] > 100 µM | [18] 54.8 µM | [19] 52.5 µM | [20] 35.2 µM
